Source: patent publication US20240366612A1, “COMPOUNDS AND METHODS FOR MODULATING NUCLEIC ACID SPLICING” (REMIX THERAPEUTICS INC., priority 2021, published 2024)
pIC50: −log10 of the molar value. Structures can show the parent of a compound that is named as a salt.

Experiments:
SMN2 CJ mRNA = assay: Gene panel canonical junction qPCR assay, SMN2; assay type: cell-based; conditions: Homo sapiens, larger gene panel, read-out: SMN2 IC50 (decrease in CJ mRNA levels)
How it was run: (§1)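 A673 or K562 cells treated 24 h with 11-point 3-fold dilutions (top 10 µM, ≤0.25% DMSO) at 37 °C. Canonical exon-junction mRNA measured by probe-based RT-qPCR, normalized to GAPDH, GUSB or PPIA and DMSO (2^−ΔΔCt), converted to percent response over a fixed ΔCt window; IC50 from 4-parameter fit.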

MYB mRNA = assay: Splicing RT-qPCR assay, MYB canonical (CJ) and alternative (AJ) junction mRNA; assay type: cell-based; conditions: Homo sapiens, A673 or K562 cells, 24 hours treatment; for pIC50: decrease in CJ mRNA; for AC50: increase in AJ mRNA
How it was run: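 Compound-treated A673 or K562 cells (11-point 3-fold dilution, top dose 10 uM final, DMSO ≤0.25%) were incubated for 24 h at 37° C. Lysates underwent one-step RT-qPCR for canonical and alternative-exon junction isoforms. Normalization used PPIA for A673 and GAPDH or GUSB for K562.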

MYB CJ mRNA = assay: Gene panel canonical junction qPCR assay, MYB; assay type: cell-based; conditions: Homo sapiens, larger gene panel, read-out: MYB IC50 (decrease in CJ mRNA levels)
How it was run: as §1

[1] = Cell Titer Glo 2.0 cell viability assay; conditions: human, K562 cells

Row | Compound | pIC50 (SMN2 CJ mRNA) | pIC50 (MYB mRNA) | pIC50 (MYB CJ mRNA) | AC50 (MYB mRNA) [nM] | GI50 at 72 h [1] [nM]
1 | COc1cc(-c2cc3ncn(C4CCNCC4)c(=O)c3s2)cnn1 [Compound 260] | 5.00 to 6.00 | 5.00 to 6.00 | 5.00 to 6.00 | 1000 to 10000 | 1000 to 10000
2 | Cc1cn2cc(-c3cc4ncn(C5CCNCC5)c(=O)c4s3)cc(C)c2n1 [Compound 261] | > 7.00 | 6.00 to 7.00 | 6.00 to 7.00 | 100 to 1000 | 1000 to 10000
3 | Cc1cn2nc(-c3cc4ncn(C5CCNCC5)c(=O)c4s3)cc2c(C)n1 [Compound 262] | 6.00 to 7.00 | 6.00 to 7.00 | 6.00 to 7.00 | 100 to 1000 | 100 to 1000
4 | COc1cc(-c2cc3ncn(C4CCNCC4)c(=O)c3s2)ccn1 [Compound 263] | 5.00 to 6.00 | 5.00 to 6.00 | 5.00 to 6.00 | 1000 to 10000 | 1000 to 10000
5 | Cc1cn2cc(-c3cc4ncn(C5CCNCC5)c(=O)c4s3)ncc2n1 [Compound 264] | 6.00 to 7.00 | 5.00 to 6.00 | 5.00 to 6.00 | 1000 to 10000 | 1000 to 10000
6 | Cc1cn2nc(-c3nc4sc(N5CCNCC5)nc4c(=O)[nH]3)cc2c(C)n1 [Compound 267] | 6.00 to 7.00 | 6.00 to 7.00 | 6.00 to 7.00 | 100 to 1000 | 100 to 1000
7 | Cc1cn2nc(-c3nc4sc(N5CCN(C)CC5)nc4c(=O)[nH]3)cc2c(C)n1 [Compound 268] | 6.00 to 7.00 | < 5.00 | < 5.00 | 1000 to 10000 | > 10000
8 | Cc1cn2cc(-c3cc4ncn(N5CCNCC5)c(=O)c4s3)cc(F)c2n1 [Compound 269, 6-{8-fluoro-2-methylimidazo[1,2-a]pyridin-6-yl}-3-(piperazin-1-yl)thieno[3,2-d]pyrimidin-4-one] | > 7.00 | 6.00 to 7.00 | 6.00 to 7.00 | 100 to 1000 | 100 to 1000
9 | Cc1cn2cc(-c3cc4ncn(C5CCNC5)c(=O)c4s3)cc(F)c2n1 (stereo not drawn) [Compound 270, 6-{8-fluoro-2-methylimidazo[1,2-a]pyridin-6-yl}-3-(pyrrolidin-3-yl)thieno[3,2-d]pyrimidin-4-one] | 6.00 to 7.00 | 6.00 to 7.00 | 6.00 to 7.00 | 100 to 1000 | 100 to 1000

The next lines start with results.

Row | pIC50 (SMN2 CJ mRNA) | pIC50 (MYB mRNA) | pIC50 (MYB CJ mRNA) | Compound | AC50 (MYB mRNA) [nM] | GI50 at 72 h [1] [nM]
10 | 6.00 to 7.00 | 5.00 to 6.00 | 5.00 to 6.00 | Cn1cc2cc(-c3nc4ncn(C5CCNCC5)c(=O)c4s3)c(O)cc2n1 [Compound 253, 2-(6-hydroxy-2-methyl-2H-indazol-5-yl)-6-(piperidin-4-yl)thiazolo[4,5-d]pyrimidin-7(6H)-one, hydrochloride] | 1000 to 10000 | > 10000
11 | 5.00 to 6.00 | < 5.00 | < 5.00 | Cc1cn2cc(-c3nc4sc(C5CCN(C)CC5)cc4c(=O)[nH]3)cc(F)c2n1 [Compound 256, 2-(8-fluoro-2-methylimidazo[1,2-a]pyridin-6-yl)-6-(1-methylpiperidin-4-yl)thieno[2,3-d]pyrimidin-4(3H)-one] | > 10000 | > 10000
12 | 5.00 to 6.00 | 5.00 to 6.00 | 5.00 to 6.00 | Cn1cc2cc(-c3cc4ncn(C5CCNCC5)c(=O)c4s3)cc(F)c2n1 [Compound 257] | 1000 to 10000 | 1000 to 10000
13 | > 7.00 | 6.00 to 7.00 | 6.00 to 7.00 | Cn1cc2cc(-c3cc4ncn(C5CCNCC5)c(=O)c4s3)c(F)cc2n1 [Compound 258] | 100 to 1000 | 1000 to 10000
14 | > 7.00 | 6.00 to 7.00 | 6.00 to 7.00 | Cn1cc2cc(-c3cc4ncn(C5CCNCC5)c(=O)c4s3)cc(C#N)c2n1 [Compound 259] | 100 to 1000 | 1000 to 10000
15 | > 7.00 | 6.00 to 7.00 | 6.00 to 7.00 | Cc1cn2cc(-c3cc4ncn(C5CCN(C)CC5)c(=O)c4s3)cc(F)c2n1 [Compound 265, 6-{8-fluoro-2-methylimidazo[1,2-a]pyridin-6-yl}-3-(1-methylpiperidin-4-yl)thieno[3,2-d]pyrimidin-4-one] | 100 to 1000 | 100 to 1000
